# Reference: patent US20240181049A1, “HARNESSING THE POWER OF MICROBIOTA AND METABOLITES FOR THE TREATMENT OF CANCER” (UTI LIMITED PARTNERSHIP, priority 2019, published 2024)
# Tests used:
# MC38 tumor cells = test: MC38 tumor cell viability in vitro; format: cell-based; conditions: direct exposure in vitro, 72 hours
# Protocol: (§1) FIG. 17A-17B. […] (a) MC38 tumor cells were treated with the indicated doses of inosine in vitro for 72 hours. Cell death and survival was assessed through flow cytometry. (b) MC38 tumor cells expressing full length ovalbumin (MC38-OVA) were treated with the indicated doses of inosine in vitro for 72 hours. In parallel, OVA-specific naïve CD4 and CD8 T cells from spleens of OT-II and OT-I mice, respectively, were activated with anti-CD3/anti-CD28 beads and rmIL-2 (20 IU/ml) for 72 hours. Inosine was then washed away from conditioned MC38-OVA cells and fresh medium together with activated T cells were added (100,000 MC38-OVA cells+25,000 CD4 cells+25,000 CD8 cells). 72 hours later, cell death and survival of MC38-OVA cells was assessed through flow cytometry. Grey and black dash-dotted lines indicate MC38-OVA cell viability and death when co-cultured with naïve OVA-specific CD4 and CD8 T cells. Data are mean±SEM and pooled from two individual experiments. n=6 biological replicates/condition. #, & P<0.05, **, P<0.01; (**=0.0001 vs 10 mM, #0.001 vs 10 mM and & 1 vs 10 mM)
# MC38-OVA cells = test: T cell-mediated killing of inosine-pretreated MC38-OVA cells; format: cell-based; conditions: pretreatment of tumor cells prior to co-culture with activated tumor-specific T cells
# Protocol: as §1
# T cells in the MLN = test: Th1 activation in vivo after ovalbumin/CpG immunization; design: species or system GF mice; conditions: 300 mg/kg/BW i.p.; vs vehicle
# Protocol: FIG. 5A-5L: Inosine promotes Th1 activation and anti-tumor immunity. (a) Schematic overview of experimental setup to assess the effect of inosine on Th1 activation in vivo. (b, c) Representative dot plots and quantification (left and right panel respectively) of T-bet^+IFN-γ^+CD3ε^+ (b) CD8^+ or (c) CD4^+ T cells in the MLN. (d) Schematic overview of experimental setup to assess the effect of inosine on anti-tumor immunity. Upon palpable tumors, mice were treated with 100 μg anti-CTLA-4 i.p. (5 times every 72 hours) and in some groups 20 μg CpG i.p. (5 times every 72 hours). In addition, inosine (300 mg/KG/BW) or PBS was given daily orally (O), through gavage or systemically (S) through i.p. injection. (e) Tumor weight and quantification of IFN-γ^+ cells amongst (f) CD4^+ or (g) CD8^+ cells are shown. (h). Schematic overview to assess the requirement of A2AR signaling for inosine-induced anti-tumor immunity. […] (j) Tumor weight and quantification of IFN-γ^+ in (k) CD8^+ or (l) CD4^+ cells in the tumor are shown. […]
# To evaluate the effect of inosine on Th1 activation, mice received 30 μg CpG, […] EndoFit Ovalbumin (both Invivogen) and 2 μg OVA323-339 (Sigma) i.p. and 24 hours later mice received 300 mg/kg/BW inosine or PBS as a control through i.p. injection. T cell differentiation was assessed 48 hours later. […]
# MC38 = MC38 tumors in gnotobiotic Oligo-MM12 mice, inosine + anti-CTLA-4; format: in vivo
# Protocol: FIG. 35A-35H. Inosine and live B. pseudolongum improve anti-CTLA-4 therapy efficacy in moderately diverse and complex microbiomes. A) Schematic overview of experimental setup to assess the effect of inosine on anti-tumor immunity in gnotobiotic mice (Oligo-MM12) stably colonized with 12 bacterial species. Upon palpable tumors, Oligo-MM12 colonized mice were treated with 100 μg anti-CTLA-4 i.p. or Isotype antibody (5 times every 72 hours). In addition, inosine (300 mg/KG/BW) or PBS was given daily orally through gavage. (B) Pictures of tumors and (C) tumor weight are shown at day 20. scale bars: 1 cm. (D) Quantification of intratumoral IFN-γ+ cells amongst CD8+ or CD4+ T cells are shown. (E) Schematic overview of experimental setup to assess the effect of inosine and B. pseudolongum on anti-tumor immunity in SPF mice. Following MC38 injection some mice received antibiotics (ABX), specifically Ampicillin 1 mg/ml, Colistin 1 mg/ml and Streptomycin 5 mg/ml for 7 days in the drinking water. Upon palpable tumors, antibiotics were removed and 100 μg anti-CTLA-4 (5 times every 72 hours) started. Mice concomitantly received either PBS, inosine (300 mg/KG/BW daily), B. pseudolongum or heat inactivated (H.i.) B. pseudolongum orally through gavage (5 times every 72 hours). (F) Pictures of tumors and (G) tumor weight are shown at day 20. scale bars: 1 cm. (H) Quantification of intratumoral IFN-γ+ cells amongst CD8+ or CD4+ cells are shown. Data are mean+/−SEM and (A-H) n=7 mice/group. P<0.05; **, P<0.01, ***, P<0.001.
smiles,measurement,setting,value
OC[C@H]1O[C@@H](n2cnc3c(O)ncnc32)[C@H](O)[C@@H]1O [inosine],tumor cell viability,MC38 tumor cells,did not exert any effects on tumor cell viability
same,tumor cell viability,MC38 tumor cells; listed as Inosine,does not directly impact tumor cell viability
same,T cell-mediated killing of tumor cells,MC38-OVA cells,did not promote or inhibit T cell-mediated killing of tumor cells
same,"proportions of T-bet+, IFN-γ+ CD8+ and CD4+ T cells in the MLN",T cells in the MLN,increased
same,intra-tumoral IFN-γ+CD8+ and IFN-γ+CD4+ T cells,MC38,increased
same,tumor size,MC38,reduced tumor size
same,anti-tumor effects of anti-CTLA-4,MC38; inosine 300 mg/KG/BW daily orally,able to promote the anti-tumor effects of anti-CTLA-4
